Reference: patent publication US12653805B2, “Targeting LASP1, eIF4A1, eIF4B and CXC4 with modulators and combinations thereof for cancer therapy” (The University of Toledo, priority 2019, dated 2026)

Assays:
[1] = tested on: MDA-MB-231 cells; conditions: cited from earlier work
[2] = tested on: LASP1-eIF4A/eIF4B association in 231S cells; assay: Co-immunoprecipitation of LASP1 with eIF4A/eIF4B; format: cell-based, human
Method: Subconfluent 231S cells were serum-starved for 1 hour and stimulated with 10-20 nM CXCL12 (PeptroTech, Rocky Hill, N.J., Cat. No. 300-28A) over different time points. […] Total protein in the clarified lysate was quantified using a Bradford protein assay (Bio-Rad, Hercules, Calif., Cat. No. 5000006). 1 mg of total protein lysate was employed in all immunoprecipitation reactions. eIF4B was immunoprecipitated by using 2 μg of eIF4B antibody (Cell Signaling Technology, Danvers, Mass., Cat. No. 13088). Mouse (G3A1) mAb IgG1 Isotype Control (Cell Signaling Technology, Danvers, Mass., Cat. No. 5415) served as the mock control. Next, eIF4A was immunoprecipitated using 2 μg of eIF4A1 antibody (Cohesion Biosciences, London, Purley, Cat. No. CQA1180). His-Tag (D3L10) XP® Rabbit mAb (Cell Signaling Technology, Danvers, Mass., Cat. No. 12698) was employed for the mock condition. Finally, in the reciprocal Co-IP, LASP1 was immunoprecipitated by using 2 μg LASP1 antibody (Biolegend, San Diego, Calif., Cat. No. 909301). As in the eIF4B Co-IP, mouse (G3A1) IgG1 isotype mAb was employed as the mock control. […] Proteins of interest were analyzed by sodium dodecyl sulfate-polyacrylamide gel electrophoresis (SDS-PAGE) and Western blotting.

[3] = tested on: eIF4F complex in 231S cells; assay: m7GTP pulldown assay (eIF4F complex); format: cell-based, human
Method: 231S cells were serum starved for 1 h and cells were stimulated (and prepared) as described in the co-immunoprecipitation section. 100 nM AMD3465 (CXCR4 antagonist, Sigma-Aldrich, St. Louis, Mo., Cat. No. SML1433-5MG) was incubated 30 min prior to stimulation. 1 mg of total protein lysate in 1 mL of Co-IP buffer was incubated with 25 μL of m7-GTP agarose beads overnight at 4° C. (Jena Biosciences, Jena, Germany, Cat. No. AC-155S). Following incubation, beads were washed with Co-IP buffer. Protein was eluted and analyzed by SDS-PAGE and Western blotting.

[4] = tested on: 231S LASP1 NS cells; assay: Western blotting of eIF4A-dependent genes after CXCL12 stimulation; format: cell-based, human; conditions: control-silenced (LASP1 NS) 231S cells, 10-20 nM CXCL12
Method: Cell lysates were prepared and quantified as described. Western blots were incubated with the following 1° Abs: Cyclin D1 (Cell Signaling Technology, Danvers, Mass., Cat. No. 2922), eIF4A C32B4 (Cell Signaling Technology, Danvers, Mass., Cat. No. 2013), eIF4B 1F5 (Cell Signaling Technology, Danvers, Mass., Cat. No. 13088), p-eIF4B S422 (Thermo Scientific, Rockford, Ill., Cat No. PA5-38362), eIF4E C46H6 (Cell Signaling Technology, Danvers, Mass., Cat. No. 2067), eIF4G C45A4 (Cell Signaling Technology, Danvers, Mass., Cat. No. 2469), GST 26H1 (Cell Signaling Technology, Danvers, Mass., Cat. No. 2624), LASP1 8C6 (Biolegend, San Diego, Calif., Cat. No. 909301), MDM2 SMP14 (Santa Cruz Biotechnology, Dallas, Tex., Cat. No. sc-965), PDCD4 D29C6 (Cell Signaling Technology, Danvers, Mass., Cat. No. 9535), p-PDCD4 S67 (Sigma-Aldrich, St. Louis, Mo., Cat. No. P0072), ROCK1 C8F7 (Cell Signaling Technology, Danvers, Mass., Cat. No. 4035), survivin 71G4B7 (Cell Signaling Technology, Danvers, Mass., Cat. No. 2808), 4E-BP1 53H11 (Cell Signaling Technology, Danvers, Mass., Cat. No. 9644), p-4E-BP1 Thr70 (Cell Signaling Technology, Danvers, Mass., Cat. No. 9455), and β-tubulin D66 (Sigma/Aldrich, St. Louis, Mo., Cat. No. T0198). […]

[5] = tested on: CXCR4 signaling in 231S cells; assay: Western blotting of phosphorylation of eIF4B, PDCD4, 4E-BP1 after CXCR4 activation; format: cell-based, human
Method: Cell lysates were prepared and quantified as described. Western blots were incubated with the following 1° Abs: Cyclin D1 (Cell Signaling Technology, Danvers, Mass., Cat. No. 2922), eIF4A C32B4 (Cell Signaling Technology, Danvers, Mass., Cat. No. 2013), eIF4B 1F5 (Cell Signaling Technology, Danvers, Mass., Cat. No. 13088), p-eIF4B S422 (Thermo Scientific, Rockford, Ill., Cat No. PA5-38362), eIF4E C46H6 (Cell Signaling Technology, Danvers, Mass., Cat. No. 2067), eIF4G C45A4 (Cell Signaling Technology, Danvers, Mass., Cat. No. 2469), GST 26H1 (Cell Signaling Technology, Danvers, Mass., Cat. No. 2624), LASP1 8C6 (Biolegend, San Diego, Calif., Cat. No. 909301), MDM2 SMP14 (Santa Cruz Biotechnology, Dallas, Tex., Cat. No. sc-965), PDCD4 D29C6 (Cell Signaling Technology, Danvers, Mass., Cat. No. 9535), p-PDCD4 S67 (Sigma-Aldrich, St. Louis, Mo., Cat. No. P0072), ROCK1 C8F7 (Cell Signaling Technology, Danvers, Mass., Cat. No. 4035), survivin 71G4B7 (Cell Signaling Technology, Danvers, Mass., Cat. No. 2808), 4E-BP1 53H11 (Cell Signaling Technology, Danvers, Mass., Cat. No. 9644), p-4E-BP1 Thr70 (Cell Signaling Technology, Danvers, Mass., Cat. No. 9455), and β-tubulin D66 (Sigma/Aldrich, St. Louis, Mo., Cat. No. T0198). Following primary incubation, Western blots were incubated with Goat anti-Mouse IgG (H+L) Superclonal™ Secondary Ab conjugated to HRP (Thermo Scientific, Rockford, Ill., Cat No. A28177) or Goat anti-Rabbit IgG (H+L) Superclonal™ Secondary Ab conjugated to HRP (Thermo Scientific, Rockford, Ill., Cat No. A27036). Finally, blots were developed with Amersham™ ECL™ Prime Western Blotting Detection Reagent (GE Healthcare Life Sciences, Pittsburgh, Pa., Cat. No. RPN2232) and HyBlot ES™ Autoradiography Film (Denville Scientific, Swedesboro, N.J., Cat. No. E3212). Densitometry of the Western blots was performed using ImageJ. Calculation of fold change is given in the figure legend for each experiment.

[6] = tested on: LASP1-eIF4A interaction in 231S cells; assay: Proximity ligation assay (PLA) of LASP1-eIF4A interaction; format: cell-based, human
Method: The Duolink In Situ Orange Fluorescent kit (Sigma/Aldrich, St. Louis, Mo., Cat. No. DUO92102-1KT) was employed to detect the endogenous interaction between LASP1 and eIF4A in situ in 231S cells. The PLA was performed according to the manufacturer's instructions using a rabbit eIF4A1 antibody (Cohesion Biosciences, London, Purley, Cat. No. CQA1180) and a mouse LASP1 antibody (Biolegend, San Diego, Calif., Cat. No. 909301). The single Ab control condition represents the PLA reaction with only the LASP1 antibody. In addition, cells were stained with phalloidin (Life Technologies, Carlsbad, Calif., Cat. No. A12379) and nuclei with DRAQ5 (Thermo Scientific, Rockford, Ill., Cat No. 62251). Cells were stimulated and inhibited as described. Moreover, cells were fixed, stained, and permeabilized with standard methods. The images were acquired by two-photon confocal microscopy and processed with Leica Application Suite X software (Leica, Wetzlar, Germany). Quantification of the interaction dots was performed using ImageJ.

| Molecule | IC50 [1] | increase in association of LASP1 with eIF4B (reciprocal Co-IP) ([2]; 20 nM CXCL12, 0 min set to 1) | association of endogenous LASP1 and eIF4A1 (reciprocal Co-IP) ([2]; 20 nM CXCL12, 5 min, 0 min set to 1) | eIF4G-eIF4E interaction (eIF4G recruitment) ([3]; 20 nM CXCL12, 20 min) | association of endogenous LASP1 with eIF4E ([3]; 20 nM CXCL12, peak at 5 min) | eIF4G-eIF4E interaction (eIF4G recruitment) ([3]; 20 nM CXCL12, peak at 5 min) | protein levels of CCND1, BIRC5, Mdm2, and ROCK1 [4] | phosphorylation of PDCD4 (pS67) ([5]; CXCL12, 5 min) | phosphorylation of PDCD4 (pS67) ([5]; CXCL12, peak at 10 min) | stimulation of the interaction between LASP1 and eIF4A ([6]; CXCL12 5 min vs unstimulated) | LASP1-eIF4A interaction dots (interactions/cell) ([6]; CXCL12 incubation for 5 min (20 nM), unstimulated 11.6±6.5) |
| --- | --- | --- | --- | --- | --- | --- | --- | --- | --- | --- | --- |
| COC(=O)[C@H]1[C@@H](O)[C@@]2(O)c3c(OC)cc(O[C@@H]4O[C@@H]([C@H](O)CO)CO[C@H]4OC)cc3O[C@@]2(c2ccc(OC)cc2)[C@@H]1c1ccccc1 [Silvestrol] | 60 nM |  |  |  |  |  |  |  |  |  |  |
| CXCL12: ligand for CXCR4 (PeproTech), used to stimulate cells |  | 7.5 fold | 19.1 fold | 2.2 fold | 2.2 fold | 4.4 fold | considerable increases | 3.3 fold | 3.9 fold | 3 fold | 118±58.3 dots |
